Results from patent US7902356B2, “Thiazolopyridinone derivates as MCH receptor antagonists” (Eli Lilly and Company, priority 2004, dated 2011).
Structures can show the parent of a compound that is named as a salt.

target: T1, human MCHR1 (Homo sapiens, UniProt Q99705); test: 125I-MCH competitive binding assay with clone 43 membranes (SPA); conditions: 125I-MCH binding, Ki from IC50 by Cheng-Prusoff
T1 construct: The full-length cDNA for human MCHR1 was cloned; expressed in transfected cells; host or cells: AV12 cells previously transfected with Galpha15
T1 sequence (Q99705 whole entry): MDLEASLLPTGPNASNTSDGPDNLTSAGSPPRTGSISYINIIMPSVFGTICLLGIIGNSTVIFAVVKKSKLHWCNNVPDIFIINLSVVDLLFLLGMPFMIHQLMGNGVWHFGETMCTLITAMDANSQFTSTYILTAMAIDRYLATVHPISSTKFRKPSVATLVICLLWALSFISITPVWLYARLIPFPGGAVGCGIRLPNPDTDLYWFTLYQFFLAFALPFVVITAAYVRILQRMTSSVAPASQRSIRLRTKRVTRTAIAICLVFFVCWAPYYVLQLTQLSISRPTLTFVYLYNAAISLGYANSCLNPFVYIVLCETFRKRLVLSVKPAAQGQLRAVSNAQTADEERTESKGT
Experimental: The full-length cDNA for human MCHR1 was cloned from a human adult brain cDNA library (Edge Biosystems, Cat. 38356) by standard polymerase chain reaction (PCR) methodology employing the following primers: sense, 5′-GCCACCATGGACCT GGAAGCCTCGCTGC-3′; anti-sense, 5′-[…]-3′. The PCR reaction was performed in a final volume of 50 μl containing 5 μl of a 10× stock solution of PCR buffer, 1 μl of 10 mM dNTP mixture (200 μM final), 2 μl of 50 mM Mg(SO4) (2 mM final), 0.5 μl of 20 μM solutions of each primer (0.2 μM final), 5 μl of template cDNA containing 0.5 ng DNA, 0.5 μl of Platinum Taq High Fidelity DNA polymerase (Gibco Life Technologies) and […] of H2O. PCR amplification was performed on a Perkin Elmer 9600 thermocycler. After denaturation for 90 sec at 94° C., the amplification sequence consisting of 94° C. for 25 sec, 55° C. for 25 sec and 72° C. for 2 min was repeated 30 times, followed by a final elongation step at 72° C. for 10 min. The desired PCR product (1.1 Kb) was confirmed by agarose gel electrophoresis and the band was extracted from the gel by Geneclean (Bio101) following the manufacturer's instructions. Following extraction, the cDNA fragment was cloned into pCR2.1-TOPO plasmid (Invitrogen Corp) to confirm the identity and sequence.
In order to generate cell lines stably expressing MCHR1, the insert was then subcloned into the Xba I and Not I sites of pcDNA(+)-3.1-neomycin (Invitrogen). After purification by Qiagen Maxi-prep kit (QIAGEN, Inc.), the plasmid was transfected by Fugene 6 (Roche Applied Science) into AV12 cells that had been previously transfected with the promiscuous G protein Gα15. The transfected cells were selected by G418 (800 μg/ml) for 10-14 days and single colonies were isolated from culture plates. The G418-resistant colonies were further selected for MCHR1 expression by measuring MCH-stimulated Ca^2+ transients with a fluorometric imaging plate reader (FLIPR, Molecular Devices).
Both the ^125I-MCH binding and functional GTPγ^35S binding assays employed membranes isolated from a clone designated as clone 43. Typically, cells from 20 confluent T225 flasks were processed by washing the monolayers in cold phosphate-buffered saline (PBS), scraping the cells into same and re-suspending the cell pellet in 35 ml of 250 mM Sucrose, 50 mM HEPES, pH 7.5, 1 mM MgCl2, 24 μg/ml DNase I, and protease inhibitors (1 Complete® tablet, per 50 ml of buffer prepared, Roche Diagnostics). Alternatively, greater levels of cells could be generated by adapting cell growth to suspension culture in 20 L stirred vessel bioreactors. After incubation on ice for 5 min, cells were disrupted with 20-25 strokes of a Teflon/Glass homogenizer attached to an overhead motorized stirrer, and the homogenate was centrifuged at 40,000 rpm in Beckman Type 70.1 Ti rotor. The pellets were re-suspended in 250 mM Sucrose, 50 mM HEPES, pH 7.5, 1.5 mM CaCl2, 1 mM MgSO4 and protease inhibitors by Teflon/Glass homogenization to achieve a protein concentration of ˜3-5 mg/ml (Pierce BCA assay with Bovine serum albumin as standard). Aliquots were stored at −70° C.
Binding of compounds to MCHR1 was assessed in a competitive binding assay employing ^125I-MCH, compound and clone 43 membranes. Briefly, assays are carried out in 96-well Costar 3632 white opaque plates in a total volume of 200 μl containing 25 mM HEPES, pH 7.0, 10 mM CaCl2, 2 mg/ml bovine serum albumin, 0.5% dimethyl sulfoxide (DMSO), 5 μg of clone 43 membranes, 200 pM ^125I-MCH (NEN), 0.625 mg/ml of wheat germ agglutinin scintillation proximity assay beads (WGA-SPA beads, Amersham Inc., now GE Healthcare) and a graded dose of test compound. Non-specific binding is assessed in the presence of 0.1 μM unlabeled MCH. Bound ^125I-MCH is determined by placing sealed plates in a Microbeta Trilux (Perkin Elmer Life and Analytical Sciences Inc.) and counting after a 12 hr delay. […]

Row | Ki | SMILES
1 | 39.7 nM | O=C1c2sc(-c3ccc(Cl)cc3)nc2CCN1c1ccc2c(c1)ncn2CCN1CCCC1 [Example 2, 2-(4-Chloro-phenyl)-5-[1-(2-pyrrolidin-1-yl-ethyl)-1H-benzoimidazol-5-yl]-6,7-dihydro-5H-thiazolo[5,4-c]pyridin-4-one]
2 | 19 nM | COc1cc(N2CCc3nc(-c4ccc(Cl)cc4)sc3C2=O)ccc1OCCN1CCCCC1 [Example 15, 2-(4-Chloro-phenyl)-5-[3-methoxy-4-(2-piperidin-1-yl-ethoxy)-phenyl]-6,7-dihydro-5H-thiazolo[5,4-c]pyridin-4-one]
3 | 3.16 nM | Cl.Cn1cc(CCN2CCCC2)c2ccc(N3CCc4nc(-c5ccc(Cl)cc5)sc4C3=O)cc21 [Example 47, 2-(4-Chloro-phenyl)-5-[1-methyl-3-(2-pyrrolidin-1-yl-ethyl)-1H-indol-6-yl]-6,7-dihydro-5H-thiazolo[5,4-c]pyridin-4-one hydrochloride]

The next lines start with the compound.

Row | SMILES | Ki
4 | Cc1cc2cc(N3CCc4nc(-c5ccc(Cl)cc5)sc4C3=O)ccc2n1CCN1CCCC1 [Example 5, 2-(4-Chloro-phenyl)-5-[2-methyl-1-(2-pyrrolidin-1-yl-ethyl)-1H-indol-5-yl]-6,7-dihydro-5H-thiazolo[5,4-c]pyridin-4-one] | 10.2 nM
5 | COc1cc(N2CCc3nc(-c4ccc(Cl)cc4)sc3C2=O)ccc1OCCN(C)C [Example 33, 2-(4-Chloro-phenyl)-5-[4-(2-dimethylamino-ethoxy)-3-methoxy-phenyl]-6,7-dihydro-5H-thiazolo[5,4-c]pyridin-4-one] | 5.13 nM
6 | COc1cc(-n2ccc3nc(-c4ccc(Cl)cc4)sc3c2=O)ccc1OCCN1CC(C)(C)OC(C)(C)C1 [Example 65, 2-(4-Chloro-phenyl)-5-{3-methoxy-4-[2-(2,2,6,6-tetramethyl-morpholin-4-yl)-ethoxy]-phenyl}-5H-thiazolo[5,4-c]pyridine-4-one Hydrochloride] | 35.8 nM

system: not listed separately; test: In vivo efficacy: 3 day body weight change in diet-induced obese rats; conditions: 10 mg/kg oral gavage once a day for 3 days; 3 day cumulative; diet-induced obese male Long-Evans rats
Experimental: Vehicle consisted of 1% CMC and 0.25% PS-80 in water.
Animals were individually housed in a temperature regulated room (24° C.) with a reverse 12 hour light/dark cycle (dark 10:00/22:00). Water and food (Teklad 95217, Harlan, Wis.) were available ad libitum. Compounds were dosed orally once a day before onset of dark for 3 days. Daily food intake and body weight change were measured for the 3 day period.

Row | SMILES | Body weight reduction @ 10 mg/Kg versus vehicle control. Data expressed in grams.
7 | COc1cc(-n2ccc3nc(-c4ccc(Cl)cc4)sc3c2=O)ccc1OCc1cncn1C [Example 42] | 1.7 grams
8 | Cl.Cn1cc(CCN2CCCC2)c2ccc(N3CCc4nc(-c5ccc(Cl)cc5)sc4C3=O)cc21 [Example 47, 2-(4-Chloro-phenyl)-5-[1-methyl-3-(2-pyrrolidin-1-yl-ethyl)-1H-indol-6-yl]-6,7-dihydro-5H-thiazolo[5,4-c]pyridin-4-one hydrochloride] | 7.2 grams
9 | COc1cc(-n2ccc3nc(-c4ccc(Cl)cc4)sc3c2=O)ccc1CCCN1CCCC1.Cl [Example 52, 2-(4-Chloro-phenyl)-5-[3-methoxy-4-(3-pyrrolidin-1-yl-propyl)-phenyl]-5H-thiazolo[5,4-c]pyridin-4-one hydrochloride] | 9.6 grams
